Assays:
UT7/EPO cells [1] = experiment: Cell proliferation assay with WST-8 reagent, mother cell line UT7/EPO expressing no TPO receptor; assay type: cell-based, human; details: 4 days incubation, absorbance at 450 nm
Procedure: (§1) Cells subcultured in the same manner as in Assay Example 1(1) were washed twice with PBS and suspended in IMDM containing 10% FBS at a cell density of 6×10^4 cells/ml. The cell suspension was transferred to a 96-well tissue culture plate (CORNING) in 100-μl aliquots. Then, 3-methoxyxanthocillin X dimethyl ether dissolved in DMSO was diluted 83-fold with IMDM containing 10% FBS and added to the aforementioned cell suspension in 20-μl aliquots. The suspension was incubated in a CO2 incubator (5% CO2, 37° C.) for 4 days. Cell proliferation was assayed using WST-8 reagent (Kishida Chemical Co., Ltd.) according to instructions by the manufacturer. A 10-μl aliquot of 5 mM WST-8 reagent solution was added to each well of the tissue culture plate, and the plate was incubated at 37° C. for 4 h. The formazan pigment generated was detected by measuring the absorbance at 450 nm with a 96-well microplate reader (Nihon Molecular Devices, Spectramax 190).

[2] = system: UT7/EPO-mpl cells (expressing human TPO receptor (c-mpl)); experiment: Cell proliferation assay with WST-8 reagent, TPO-dependent cell line UT7/EPO-mpl; assay type: cell-based; details: 4 days incubation, absorbance at 450 nm
Procedure: Stimulation of Proliferation of a Thrombopoietin (TPO)-Dependent Cell Line (2)
The reactivity of a compound of the present invention, 3-methoxyxanthocillin X dimethyl ether, with thrombopoietin (TPO) receptor was assayed using a human leukemic cell line, UT7/EPO-mpl.
as §1

UT7/EPO cells [3] = experiment: Cell proliferation assay by the MTT method, mother cell line UT7/EPO expressing no TPO receptor; assay type: cell-based, human; details: 4 days incubation, absorbance at 550 nm
Procedure: (§2) The reactivity of a compound of the present invention, xanthocillin X monomethyl ether, with thrombopoietin (TPO) receptor was assayed using a human leukemic cell line, UT7/EPO-mpl. UT7/EPO-mpl is a stable transformed cell line obtained by introducing into human leukemic cell line UT7/EPO a vector that induces expression of human TPO receptor (c-mpl) under control of a cytomegaloviral promoter by the method of Takatoku et al. (J. Biol. Chem., 272:7259-7263 (1997)). […] These two cell lines were subcultured in IMDM (GIBCO) containing 10% fetal bovine serum (FBS; TRACE SCIENTIFIC) using a CO2 incubator (5% CO2, 37° C.).
(§3) The subcultured cells described above were washed twice with PBS and suspended in IMDM containing 10% FBS at a cell density of 6×10^4 cells/ml. The cell suspension was transferred to a 96-well tissue culture plate (CORNING) in 100-μl aliquots. Then, xanthocillin X monomethyl ether dissolved in DMSO was diluted 83-fold with IMDM containing 10% FBS and added to the aforementioned cell suspension in 20-μl aliquots. The suspension was incubated in a CO2 incubator (5% CO2, 37° C.) for 4 days. […] The formazan pigment generated was dissolved by adding 150 μl per well of 0.1 M/L HCl/isopropanol solution and the absorbance of the resulting pigment solution was measured at 550 nm with a 96-well microplate reader (BIO-RAD, M450).

[4] = system: UT7/EPO-mpl cells (expressing human TPO receptor (c-mpl)); experiment: Cell proliferation assay by the MTT method, TPO-dependent cell line UT7/EPO-mpl; assay type: cell-based; details: 4 days incubation, absorbance at 550 nm
Procedure: Stimulation of Proliferation of a Thrombopoietin (TPO)-Dependent Cell Line (1)
as §2
as §3, with “aliquots.” for “aliquots. The suspension was incubated in a CO2 incubator (5% CO2, 37° C.) for 4 days.”

Row | Structure (SMILES) | effect on proliferation of UT7/EPO, the mother cell line (WST assay, FIG. 4) (UT7/EPO cells [1]) | proliferation of TPO-responsive UT7/EPO-mpl cells (WST assay, FIG. 3) [2] | effect on proliferation of UT7/EPO, the mother cell line (MTT assay, FIG. 2) (UT7/EPO cells [3]) | proliferation of TPO-responsive UT7/EPO-mpl cells (MTT assay, FIG. 1) [4]
1 | [C-]#[N+]C(=Cc1ccc(OC)cc1)C(=Cc1ccc(OC)c(OC)c1)[N+]#[C-] [3-methoxyxanthocillin X dimethyl ether] | no effect | stimulated | – | –
2 | [C-]#[N+]C(=C\c1ccc(O)cc1)/C(=C/c1ccc(OC)cc1)[N+]#[C-] [xanthocillin X monomethyl ether] | – | – | no effect | stimulated
